Entries after “also recorded” stand apart in the source; their conditions may differ.
Experiments:
[1] = system: other serine hydrolase activities; experiment: In situ competitive ABPP with FP-rhodamine, other serine hydrolases; format: cell-based, human; settings: SKOV-3 cells treated in culture with AS115 (0-10 μM), 4 h
Method: (§1) Human ovarian cancer cell lines were obtained form the National Cancer Institute's Developmental Therapeutics Program. The melanoma lines C8161 and MUM-2B were obtained form Mary Hendrix. Cells were maintained in RPMI medium 1640 with 10% (v/v) fetal calf serum at 37° C. in a humidified atmosphere of 5% CO2/95% air. At approximately 80% confluency, cells were trypsinized, counted with the aid of a hemocytometer, and 2.5×10^6 cells were plated in 6 cm dishes. 20 h after plating cells were washed twice with PBS and supplemented with serum free RPMI containing 0.5% BSA (Sigma)(BSA-RPMI) with AS115 (0.01-10 μM) or vehicle (DMSO) at 0.1%. After incubation for 4 h the cells were harvested and analyzed by ABPP or LC-MS.
[…]. Cells were washed twice and scraped in ice-cold PBS. […] Proteomes protein concentrations were determined by a protein assay kit (Bio-Rad), adjusted to a final concentration of 1 mg/mL in Tris buffer, and treated with 2 μM FP-rhodamine for 30 min at room temperature (50 μL total reaction volume). […] Reactions were quenched with one volume of standard 2×SDS/PAGE loading buffer (reducing), separated by SDS/PAGE (10% acrylamide) and visualized in-gel with a Hitachi FMBio Ile flatbed fluorescence scanner (MiraiBio). Integrated band intensities were calculated for the labeled proteins and averaged from 3 independent cell samples to determine the level of each enzyme activity.

[2] = system: background 2-thioacetyl MAGE hydrolyzing activity in membrane proteomes; experiment: Background 2-thioacetyl MAGE hydrolyzing activity in membrane proteomes; format: biochemical; settings: FIG. 14
Method: KIAA1363-transfected cell lines were used for substrate-based enzyme activity assays. Membrane proteomes were adjusted to 0.5 mg/ml in 50 mM tris pH 7.4 buffer containing 5 mM CHAPS detergent. Immediately prior to the assay, 5,5′-dithiobis-(2-nitrobenzoic acid) (DTNB, Sigma) was added at 0.5 mM to the membrane proteome to prepare the Assay Buffer. For analysis of inhibitors, 1 ul of a 50× inhibitor solution in DMSO was added to 48 ul of Assay Buffer and preincubated for 20 min at RT. The substrate 2-thioacetyl MAGE (Cayman Chemical) was prepared by evaporating off the original solvent under nitrogen and redissolving the residue in DMSO. 1 ul of 5 mM 2-thioacetyl MAGE stock is added to each assay well to begin the assay. Absorbance is determined at A405 nm.
The background 2-thioacetyl MAGE hydrolyzing activity in membrane proteomes that is not inhibited by AS-115 is inhibited by the broad serine protease inhibitor PMSF (FIG. 14). The IC50 of AS-115 was measured using the 2-thioacetyl MAGE substrate-based assay with Flag-KIAA1363/293T cell membrane proteome (FIG. 15).

SKOV-3 cells = experiment: Targeted LC-MS analysis of lipid levels in inhibitor-treated cells; format: cell-based, human
Method: (§2) The following LC-MS conditions were used for analysis of cancer cell metabolomes. Cell pellets were harvested by scraping, isolated by centrifugation at 1,400×g, and dounce-homogenized in 4 mL of a 2:1:1 mixture of chloroform:methanol:Tris buffer (50 mM Tris*HCl, pH 8.0). Samples that were analyzed by targeted LC-MS were homogenized in the presence of the following synthetic standards: C15:0 MAG (50 pmol), C17:0 LPA (50 pmol), and 13C-C16:0 MAGE (25 pmol). Organic and aqueous layers were separated by centrifugation at 1,260×g for 5 min. The organic layer was then removed, dried under a stream of N2, and re-solubilized in 100 μL of chloroform, of which 30 μL was analyzed by LC-MS. Extraction of LPA was performed by acidifying the remaining aqueous layer to a final concentration of 5% formic acid, followed by the addition of 2 mL of chloroform. The mixture was vortexed, the organic layer removed, concentrated to dryness, and dissolved in 100 μL of chloroform, of which 30 μL was analyzed by LC-MS.
(§3) LC-MS analysis was performed using an Agilent 1100 LC-MSD SL instrument. […] Mobile phase A was composed of a 95:5 ratio of water:methanol and mobile phase B consisted of 2-propanol, methanol, and water in a 60:35:5 ratio. Solvent modifiers such as 0.1% formic acid and 0.1% ammonium hydroxide were used to assist ion formation as well as improve the LC resolution in both positive and negative ionization modes respectively. The flow rate for each run started at 0.1 mL/min for 5 min, to alleviate backpressure associated with injecting chloroform. The gradient started at 0% B and increased linearly to 100% B over the course of 40 min with a flow rate of 0.4 mL/min, followed by an isocratic gradient of 100% B for 7 min before equilibrating for 8 min at 0% B with a flow rate of 0.5 mL/min.
MS analysis was performed with an electrospray ionization (ESI) source. The capillary voltage was set to 3.0 kV and the fragmentor voltage to 100V. The drying gas temperature was 350° C., the drying gas flow rate was 10 L/min, and the nebulizer pressure was 35 psi. Untargeted data was collected using a mass range of 200-1000 Da and exported as common data format (.CDF) files for computational analysis. Differentially expressed metabolites between sample pairs were identified using the XCMS analyte profiling software (http://metlin/download) that aligns mass peaks from two LC-MS traces and quantifies the relative intensities of global metabolites (5). Significant inhibitor-sensitive peak changes were confirmed by manual quantification using the area under the peak normalized to total ion current. Targeted LC-MS measurements were made using selected ion monitoring (SIM). Peaks were quantified by measuring the area under the peak and normalized to an internal standard (C15:0 MAG) or endogenous lipid (palmitic acid). Absolute MAGE levels were estimated by comparison to a 13C-MAGE standard.
as §1
By extension, the m/z 345 and 347 metabolites were interpreted to represent the C18:1 and C18:0 MAGEs, respectively. […] MAGE levels were measured by targeted LC-MS analysis of SKOV-3 cells treated with AS115 (5 μM) or DMSO for 4 h using a 13C-C16:0 MAGE internal standard. Values are represented as pmol/10^6 cells. […]

C8161 melanoma cells = experiment: LC-MS MAGE lipid levels in inhibitor-treated melanoma cells; format: cell-based, human; settings: compared to DMSO controls
Method: as §2, §3
(§4) MS analysis was performed with an electrospray ionization (ESI) source. […] Differentially expressed metabolites between sample pairs were identified using the XCMS analyte profiling software (http://metlin/download) that aligns mass peaks from two LC-MS traces and quantifies the relative intensities of global metabolites (5). Significant inhibitor-sensitive peak changes were confirmed by manual quantification using the area under the peak normalized to total ion current. […] Peaks were quantified by measuring the area under the peak and normalized to an internal standard (C15:0 MAG) or endogenous lipid (palmitic acid). […]
(§5) Human ovarian cancer cell lines were obtained form the National Cancer Institute's Developmental Therapeutics Program. […] At approximately 80% confluency, cells were trypsinized, counted with the aid of a hemocytometer, and 2.5×10^6 cells were plated in 6 cm dishes. […] After incubation for 4 h the cells were harvested and analyzed by ABPP or LC-MS. […]

MUM-2B melanoma cells = experiment: as above; format: cell-based, human; settings: compared to DMSO controls
Method: as §2, §3, §4, §5

Q: Which results are given for CCCCOCC1CCCCC1COCCNC(=O)Oc1ccccc1F (stereo not drawn) [AS115]?
A: IC50 [1]: > 10 µM; Background 2-thioacetyl MAGE hydrolyzing activity [2]: not inhibited; Basal levels of 2-acetyl MAGE (SKOV-3 cells): not significantly altered; Basal levels of PAF (SKOV-3 cells): not significantly altered; Absolute level of MAGE lipid C18:1 (SKOV-3 cells; 5 μM, 4 h, 13C-C16:0 MAGE internal standard, DMSO 12.1 ± 0.4): 4.0 ± 0.7 pmol/10^6 cells; Absolute level of MAGE lipid C18:0 (SKOV-3 cells; 5 μM, 4 h, 13C-C16:0 MAGE internal standard, DMSO 39.5 ± 3.7): 7.6 ± 2.3 pmol/10^6 cells; Absolute level of MAGE lipid C16:0 (SKOV-3 cells; 5 μM, 4 h, 13C-C16:0 MAGE internal standard, DMSO 94.7 ± 6.6): 19.3 ± 2.2 pmol/10^6 cells; Levels of MAGE lipids (SKOV-3 cells; compared to DMSO controls): significantly lowered; also recorded: reduce; Levels of alkyl-LPA (SKOV-3 cells; vs vehicle, FIG. 7B): reduce; Levels of alkyl-LPC (SKOV-3 cells; vs vehicle, FIG. 7B): reduce; Levels of MAGE lipids (C8161 melanoma cells): significantly reduced; Levels of MAGE lipids (MUM-2B melanoma cells): significantly reduced

Reference: patent US8940497B2, “Enzyme regulating ether lipid signaling pathways” (The Scripps Research Institute, priority 2006, dated 2015)
